Each structure is given as a SMILES string.

Series [1] is described as follows: Stability analysis of sulforaphane-cyclodextrin formulations by HPLC (Example 1). Type of series: physicochemical. Conditions: stored in a freezer. As for the experimental part: Analysis Overview: The sulforaphane formulations were analyzed via HPLC (UV detection at 254 nm) using an internal standard (DEET) method. An assumption is made that the sulforaphane completely disassociates from the cyclodextrin under the chromatographic conditions. A sulforaphane standard (stored in a freezer) is used to determine the response factor for each analysis.
Storage Conditions: The samples were stored under three conditions: Capped and at room temperature, capped and stored in the freezer (−30° C.), and open and stored in a 40° C. oven. These samples were analyzed for sulforaphane load over time. The stabilization of the different samples and different storage conditions may be seen in FIGS. 3-5.
Sample Preparation Example: A 20 mg to 50 mg (carefully weighed) formulation sample is dissolved in 1 mL of internal standard solution (DEET in DMF). The amount of ISTD solution is also carefully weighed. The sample is further diluted with 1 mL of nitrogen sparged deionized water. The samples are sonicated for approximately ten minutes and filtered through ha 0.45 μm nylon filter. The samples are then analyzed by HPLC UV detection at 254 nm.
Analysis Results: The results are presented as percent of theoretical load versus time (The calculation for theoretical was described above.)

The nature of series [2]: Extended stability study of stabilized sulforaphane compositions by HPLC (Example 2). Type of series: physicochemical. As to conditions: stored in a freezer. The method, then: The sulforaphane formulations were analyzed via HPLC (UV detection at 254 nm) using an internal standard (DEET) method. A sulforaphane standard (stored in a freezer) was used to determine the response factor for each analysis.
A ca. 300 mg (carefully weighed) formulation sample was dissolved in 8 mL of internal standard solution (DEET in DMF, ca 2 mg/mL). The amount of ISTD solution was also carefully weighed. The sample was further diluted with 8 mL of nitrogen sparged DI water. The samples were sonicated for ˜10 minutes and filtered through a 0.45 μm nylon filter. The samples were then analyzed by HPLC UV detection at 254 nm.
Chromatographic Conditions: • Column: Agilent Eclipse XDB-C18, 5 μm, 250×4.6 mm, […] @ 30° C. • Solvent A: 0.1% Formic acid in H2O • Solvent B: MeCN • Gradient: 5% to 100% Solvent B in Solvent A over 30 minutes • Flow: 1.5 mL/minute • Detector: UV 254 nm, ESI-MS (pos/neg) for confirmation • Retention Times: Sulforaphane: 9.2 minutes DEET: 15.5 minutes
Analysis Results: The results are presented as percent of the “time zero” load versus time.

Regarding `C[S+]([O-])CCCCN=C=S` (racemic) [sulforaphane], the “stability of the standard (HPLC response factor over all analyses)” value in series [1] and in series [2] was “stable” in each case.

These data come from US7879822B2, “Stabilized sulforaphane” (Pharmagra Labs, Inc., priority 2007, dated 2011).
